Test results reported in patent USRE38460E1 (priority 1994, dated 2004).
Like-named read-outs stand apart in the source and are kept apart here.

Legend:
BuChE = molecular target: T1, BuChE (Rattus norvegicus, UniProt Q9JKC1); experiment: In-vitro anticholinesterase effect (Table 6), BuChE; assay type: biochemical; details: read-out: inhibition activity BuChE at 10(μM)
T1 construct: from tissue; host or cells: rat serum
Protocol: (§1) In the present invention a calorimetric method reported by Ellman was used to determine the effect of inhibition of the pharmaceutical on enzyme activity. The total volume of the solution of the enzyme activity reaction was 4 ml, which contained 0.3 mmol/L of acetylcholin iodide (acetylcholinesterase substrate), or 0.4 mmol/L of butyrylcholin iodide (butyrylcholinesterase substrate), 1 ml of the buffer solution of 25 mmol/L of phosphate of pH 7.4, and water to make up to 4 ml (including the amount of the enzyme solution and the testing reagent added afterwards). After the solution was kept at 37° C. for 5 minutes, 0.1-0.2 ml of enzyme solution (red cell membrane or serum of rat) was added, or 0.1-0.3 ml of the testing reagent was added at the same time. The solution was kept at the same temperature for another 8 minutes. Then 1 ml of 3% of sodium lauryl sulphate was added to terminate the reaction. Finally 1 ml of 0.2% 5,5-dithio-2,2′-nitro-benzoic acid solution was added for developing.

[1] = molecular target: T2, acetylcholinesterase (AChE) (Rattus norvegicus, UniProt P37136); experiment: biochemical; assay type: biochemical; details: for IC50 / IC50 ratio BuChE/AChE: Table 1; for IC50: AChE taken from rat's red cell membrane; for IC50 ratio BuChE/AChE: red cell membrane AChE, serum BuChE; for inhibition effect on acetylcholinesterase (in words) / inhibition effect on acetylcholinesterase compared with huperzine A / inhibition effect on acetylcholinesterase compared with physostigmine and galanthamine: see Tables 1, 2 and 6
T2 construct: from tissue; host or cells: rat red cell membrane
Protocol: as §1
(§2) AChE taken from rat's red cell membrane. BuChE taken from rat's serum.
T2 sequence (P37136 other isoform, or with tags, fused parts or gaps): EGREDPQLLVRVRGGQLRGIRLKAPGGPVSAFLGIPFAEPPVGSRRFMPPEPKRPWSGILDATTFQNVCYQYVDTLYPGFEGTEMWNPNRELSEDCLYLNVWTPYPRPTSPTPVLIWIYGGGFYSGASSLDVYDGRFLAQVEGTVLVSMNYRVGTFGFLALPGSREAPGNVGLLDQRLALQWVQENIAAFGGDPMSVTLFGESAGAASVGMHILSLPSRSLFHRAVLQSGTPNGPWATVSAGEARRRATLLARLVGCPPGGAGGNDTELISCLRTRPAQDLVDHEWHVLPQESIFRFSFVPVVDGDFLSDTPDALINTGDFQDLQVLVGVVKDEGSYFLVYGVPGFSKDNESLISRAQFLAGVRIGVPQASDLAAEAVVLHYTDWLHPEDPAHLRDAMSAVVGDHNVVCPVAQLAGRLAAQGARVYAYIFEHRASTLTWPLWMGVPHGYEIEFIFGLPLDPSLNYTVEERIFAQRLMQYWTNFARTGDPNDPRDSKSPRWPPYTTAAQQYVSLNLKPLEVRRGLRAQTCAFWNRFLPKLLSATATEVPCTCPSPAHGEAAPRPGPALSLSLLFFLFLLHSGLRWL

[2] = molecular target: T3, butyrylcholinesterase (BuChE) (Rattus norvegicus, UniProt Q9JKC1); experiment: In-vitro anticholinesterase effect, colorimetric method (Ellman), BuChE from rat's serum; assay type: biochemical; details: for inhibition effect on butyrylcholinesterase (pseudo enzyme) compared with huperzine A: see Tables 1, 2 and 6
T3 construct: from tissue; host or cells: rat serum
T3 sequence (Q9JKC1 24-597): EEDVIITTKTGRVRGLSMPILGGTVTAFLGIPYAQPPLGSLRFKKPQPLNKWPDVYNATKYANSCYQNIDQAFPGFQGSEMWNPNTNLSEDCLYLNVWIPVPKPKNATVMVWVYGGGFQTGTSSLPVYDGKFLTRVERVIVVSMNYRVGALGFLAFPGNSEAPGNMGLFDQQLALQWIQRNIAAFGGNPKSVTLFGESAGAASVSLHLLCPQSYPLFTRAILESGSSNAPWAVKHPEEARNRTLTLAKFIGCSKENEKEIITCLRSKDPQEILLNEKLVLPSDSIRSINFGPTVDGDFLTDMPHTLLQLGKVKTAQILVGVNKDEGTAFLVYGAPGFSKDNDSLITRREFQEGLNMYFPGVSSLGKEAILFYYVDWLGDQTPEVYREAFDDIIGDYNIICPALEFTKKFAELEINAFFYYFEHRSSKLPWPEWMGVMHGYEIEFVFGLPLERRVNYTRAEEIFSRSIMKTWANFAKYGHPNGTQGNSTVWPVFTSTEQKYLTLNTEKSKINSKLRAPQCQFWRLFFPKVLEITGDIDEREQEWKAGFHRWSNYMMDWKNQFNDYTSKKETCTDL
Protocol: as §1, §2
(§3) AChE taken from homogenate of rat's cortex. BuChE taken from rat's serum.

mice = experiment: Critical toxicity on mice (Bliss method); assay type: in vivo; details: for LD50 relative to that of the compound of formula (I): mice; for critical toxicity compared with compound (I): mouse, in vivo
Protocol: (§4) Test of each pharmaceutical was carried out using 4-5 dosage group.
(§5) Mortality within 7 days was observed.

[3] = Critical toxicity on mice (Bliss method); assay type: in vivo; details: mouse, in vivo, po, mice, p.o., Bliss method, mortality within 7 days
Protocol: as §4, §5

[4] = test system: memory impairment caused by scopolamine; experiment: Mouse passive escape operation (platform jumping method), memory impairment caused by scopolamine; assay type: in vivo, mice; details: for delitescence of get-down (sec ± SEM): mice, tested after 24 hours; for effect on improving memory (in words): mouse passive escape operation, compared with compound of formula (I)
acetylcholinesterase = molecular target: T4, acetylcholinesterase (Rattus norvegicus, UniProt P37136); experiment: Study on kinetics of enzyme; assay type: biochemical
T4 sequence (P37136 32-614): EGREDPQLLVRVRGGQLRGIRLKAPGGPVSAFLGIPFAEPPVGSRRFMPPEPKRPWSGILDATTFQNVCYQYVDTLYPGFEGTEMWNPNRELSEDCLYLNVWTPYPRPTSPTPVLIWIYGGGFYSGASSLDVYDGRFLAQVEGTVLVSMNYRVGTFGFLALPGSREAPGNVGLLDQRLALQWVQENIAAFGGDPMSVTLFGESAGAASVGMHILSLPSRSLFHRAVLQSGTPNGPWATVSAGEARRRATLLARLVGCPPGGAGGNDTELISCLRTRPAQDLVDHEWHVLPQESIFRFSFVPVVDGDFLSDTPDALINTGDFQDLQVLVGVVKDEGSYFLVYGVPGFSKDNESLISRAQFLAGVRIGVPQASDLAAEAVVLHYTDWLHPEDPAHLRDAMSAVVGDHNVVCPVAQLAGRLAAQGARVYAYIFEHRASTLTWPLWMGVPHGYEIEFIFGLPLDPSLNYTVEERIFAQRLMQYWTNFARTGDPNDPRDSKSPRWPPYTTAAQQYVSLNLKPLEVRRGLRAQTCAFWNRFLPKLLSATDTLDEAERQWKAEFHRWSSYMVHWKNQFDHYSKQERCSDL
Protocol: In the present invention a calorimetric method reported by Ellman was used to determine the effect of inhibition of the pharmaceutical on enzyme activity. The total volume of the solution of the enzyme activity reaction was 4 ml, which contained 0.3 mmol/L of acetylcholin iodide (acetylcholinesterase substrate), or 0.4 mmol/L of butyrylcholin iodide (butyrylcholinesterase substrate), 1 ml of the buffer solution of 25 mmol/L of phosphate of pH 7.4, and water to make up to 4 ml (including the amount of the enzyme solution and the testing reagent added afterwards). After the solution was kept at 37° C. for 5 minutes, 0.1-0.2 ml of enzyme solution (red cell membrane or serum of rat) was added, or 0.1-0.3 ml of the testing reagent was added at the same time. The solution was kept at the same temperature for another 8 minutes. Then 1 ml of 3% of sodium lauryl sulphate was added to terminate the reaction. Finally 1 ml of 0.2% 5,5-dithio-2,2′-nitro-benzoic acid solution was added for developing. “721” spectrophotometer was used to determine the density of light at 440 nm. A solution without addition of the pharmaceutical to inhibit the enzyme activity was used as a control (100%).

AChE = molecular target: T5, AChE (Rattus norvegicus, UniProt P37136); experiment: biochemical; details: Table 6
T5 construct: 0.1-0.2 ml of enzyme solution (red cell membrane or serum of rat) was added; from tissue; host or cells: rat tissue
T5 sequence (P37136 32-614): T4 sequence (P37136 32-614)
Protocol: as §1

[5] = test system: memory impairment caused by scopolamine; experiment: 8-arm maze spatial distinction operation of rat, memory impairment caused by scopolamine; assay type: in vivo; details: for effect on improving memory (in words): 8-arm maze spatial distinction operation of rat, compared with compound of formula (I); for No. of mistakes in operation before reaching the standard, reference memory (X + SEM) / No. of mistakes in operation before reaching the standard, working memory (X + SEM): rats, 8-arm maze
[6] = molecular target: T6, acetylcholinesterase (AChE) (Rattus norvegicus, UniProt P37136); experiment: biochemical; assay type: biochemical; details: Table 2; for IC50: AChE taken from homogenate of rat's cortex; for IC50 ratio BuChE/AChE: cortex AChE, serum BuChE
T6 construct: from tissue; host or cells: homogenate of rat cortex
T6 sequence (P37136 32-614): T4 sequence (P37136 32-614)
Protocol: as §1, §3

[7] = first of two columns headed LD50, read-out: LD50 (first column) (95% confidence limit)
[8] = second of two columns headed LD50, read-out: LD50 (second column) (95% confidence limit)
[9] = scopolamine + derivative 2 + 0.2 mg/kg ip + po
[10] = scopolamine + derivative 2 + 0.4 mg/kg ip + po
[11] = scopolamine + derivative 0.124 + 0.2 mg/kg ip + po
[12] = scopolamine + derivative 0.2 ± 0.1 mg/kg ip + po
[13] = scopolamine + derivative 0.2 ± 0.3 mg/kg ip + po

T1 sequence (Q9JKC1 24-597): as the sequence (Q9JKC1 24-597) above

Structure (SMILES) | inhibitor of acetylcholinesterase (summary in words) [1] | IC50 [1] [nM] | IC50 ratio BuChE/AChE [1] | inhibition effect on acetylcholinesterase (in words) [1] | inhibition effect on acetylcholinesterase compared with huperzine A [1] | inhibition effect on acetylcholinesterase compared with physostigmine and galanthamine [1] | IC50 [2] [nM] | inhibition effect on butyrylcholinesterase (pseudo enzyme) compared with huperzine A [2] | LD50 relative to that of the compound of formula (I) (mice) | critical toxicity compared with compound (I) (mice) | LD50 [3, 7] [mg/kg] | LD50 [3, 8] [mg/kg] | delitescence of get-down (sec ± SEM) [4, 9] [s] | delitescence of get-down (sec ± SEM) [4, 10] [s] | effect on improving memory (in words) [4] | combination with acetylcholinesterase (reversibility) (acetylcholinesterase) | effect on improving memory (in words) [5] | IC50 [6] [nM] | IC50 ratio BuChE/AChE [6] | other results
CC=C1C2C=C(C)CC1(N=Cc1ccc(OC)c(O)c1)c1ccc(=O)[nH]c1C2 (stereo not drawn) [derivative No. 18] | highly effective selective inhibitors | 151 | 709.9 | remarkable inhibition effect | slightly weaker | apparently stronger | 107000 | weaker inhibition effect | ⅓ | lower critical toxicity | 9.6 | 14.4 | 67.7 ± 11.7 | 48.7 ± 6.9 | very strong effect | reversible | very strong effect | 151 | 708.2 | inhibition at 10 µM (BuChE): 0%; delitescence of get-down (sec ± SEM) ([4]; scopolamine + derivative 3 + 0.3 mg/kg ip + po): 64.0 ± 9.8 s; BuChE/AChE (AChE): >500; inhibition at 1 µM (AChE; 1 μM): 90.2%; IC50 (AChE; read-out: inhibition activity AChE IC50): 84 nM; No. of mistakes in operation before reaching the standard, reference memory (X + SEM) [5, 11]: 0.67; No. of mistakes in operation before reaching the standard, working memory (X + SEM) [5, 11]: 0.33
CC=C1C2C=C(C)CC1(N=Cc1c(O)cc(OC)cc1OC)c1ccc(=O)[nH]c1C2 (stereo not drawn) [derivative No. 19] | highly effective selective inhibitors | 145 | 722.1 | remarkable inhibition effect | slightly weaker | apparently stronger | 105000 | weaker inhibition effect | ⅓ | lower critical toxicity | 11.1 | 14.1 | 71.6 ± 14.5 | 92.2 ± 15.5 | very strong effect | reversible | very strong effect | 144 | 724.6 | delitescence of get-down (sec ± SEM) ([4]; scopolamine + derivative 2 + 0.1 mg/kg ip + po): 48.9 ± 12.6 s; delitescence of get-down (sec ± SEM) ([4]; scopolamine + derivative 2 + 0.3 mg/kg ip + po): 99.8 ± 16.4 s; No. of mistakes in operation before reaching the standard, reference memory (X + SEM) [5, 12]: 1.33 ± 0.21; No. of mistakes in operation before reaching the standard, working memory (X + SEM) [5, 12]: 1.33; No. of mistakes in operation before reaching the standard, reference memory (X + SEM) [5, 13]: 0.33; No. of mistakes in operation before reaching the standard, working memory (X + SEM) [5, 13]: 0.17
